Key:
[1] = system: MART.22 HLA-E-restricted CD8 T cells; assay: Peptide/HLA-E*0101 tetramer staining of MART.22 T cells by flow cytometry; format: binding, human; conditions: PE-streptavidin tetramers, 1 h
Procedure: A/ TNF production in response to stimulation with .221 cells pulsed with synthetic peptides. .221 cells were incubated for 1 h with range concentrations of the indicated peptides before addition of MART.22 T cells. After 6 h, T cells were fixed, permeabilized and stained for intracellular TNF-α. Results are expressed as percentage of TNF-producing T cells. B/ Peptide-MHC tetramer staining of HLA-E-restricted CD8 T cells. MART.22 T cells were incubated for 1 h with biotyniled HLA-E monomers refolded with the indicated peptides and tetramerized with PE-coupled streptavidin. Peptide-HLA-E tetramers staining was assessed by flow cytometry and MFI are indicated.
Peptides VMAPRTLLL and VMAPRTLVL (HLA-A*01- and HLA-A*02-derived signal peptides respectively) with purity >85% were purchased from Eurogentec (Angers, France). HLA-E*0101/peptide monomers were generated by the recombinant protein facility of SFR26 (Nantes, France).
For membrane staining, 2×10^5 cells were incubated at 4° C. with 10 μg/ml of Ab (specific or isotype control) or tetramers for 30 min or 1 h respectively. When non-conjugated mAb were used, a second incubation with PE-conjugated goat F(ab′)2 fragment anti-Mouse IgG (Beckman Coulters) was performed. 5×10^4 cells were acquired in the viable cells gate on a FACScalibur flow cytometer using CellQuest software (Becton Dickinson).

[2] = system: MART.22 HLA-E-restricted CD8 T cells; assay: TNF production by MART.22 against unrecognized endothelial culture HAEC#402 pulsed with synthetic peptides; format: cell-based, human; conditions: HAEC#402 loaded with 10^2 μM of peptide
Procedure: A/ Reactivity of HLA-E-restricted T cells against unrecognized endothelial cultures pulsed with synthetic peptides. HAECs were incubated for 1 h with range concentrations of the indicated peptides before MART.22 T cells were added. After 6 h, T cells were fixed, permeabilized and stained for intracellular TNF-α. Results are expressed as percentage of TNF-producing T cells. B/ Impact of KIR2DL2-ligands expression by HAECs on HLA-E-restricted T cells alloreactivity. Percentages of TNF-producing MART.22 T cells are shown for HAECs with none, one or two protective HLA-C alleles. C/ Reactivity of HLA-E-restricted T cells against unrecognized endothelial cultures in the presence of blocking antibodies. HAECs were incubated with MART.22 T cells in the presence or not of indicated concentrations of blocking antobodies. After 6 h, T cells were fixed, permeabilized and stained for intracellular TNF-α. Results are expressed as percentage of TNF-producing T cells.
(§1) For cytokine/perforine/granzyme intracellular staining, 1×10^5 T cells were stimulated in the presence of Brefeldin A (Sigma-Aldrich, 10 μg/ml) with 2×10^5 target cells (B-EBV cells or HAEC) for 6 h at 37° C., in the presence or not of blocking Abs. […] Cells were then fixed with 4% paraformaldehyde (Sigma-Aldrich), labeled with specific mAbs and analyzed by flow cytometry.

[3] = system: MART.22 HLA-E-restricted CD8 T cells; assay: TNF production by MART.22 T cells in response to .221 cells pulsed with synthetic peptides (intracellular TNF-α staining); format: cell-based, human; conditions: .221 cells loaded with synthetic peptide
Procedure: For cytokine/perforine/granzyme intracellular staining, 1×10^5 T cells were stimulated in the presence of Brefeldin A (Sigma-Aldrich, 10 μg/ml) with 2×10^5 target cells (B-EBV cells or HAEC) for 6 h at 37° C., in the presence or not of blocking Abs. For peptide loading, target cells were incubated with peptides for 1 h at 37° C. before incubation with T cells. Cells were then fixed with 4% paraformaldehyde (Sigma-Aldrich), labeled with specific mAbs and analyzed by flow cytometry.

HAEC [4] = assay: Recognition (lysis, cytokine production) of IFN-γ treated endothelial cultures by MART.22; format: cell-based, human
Procedure: A/ impact of IFN-γ treatment on surface expression of HLA-E (thick lines) and total HLA-I (dotted lines) molecules by endothelial cultures. MFI are indicated. B/ HLA-E-restricted CD8 T cells cytotoxicity toward endothelial cultures treated or not with IFN-γ. 103 ^51 Cr-labeled HAECs pretreated (closed circles) or not (open circle) with IFN-γ were co-cultured for 4 h with T cells at various E:T ratio. Cytotoxic activity was assessed trought measure of Chromium release in the supernatants. Percentages of specific lysis are indicated. Means and standard deviations of triplicate wells are shown for one representative experiments out of three performed. C/ HLA-E-restricted CD8 T cells cytokine production upon stimulation with endothelials cultures treated or not with IFN-γ. MART.22 T cells were fixed, permeabilized and stained for intracellular cytokines following 6 h of incubation with HAECs pretreated (black bars) or not (white bars) with INF-γ. Data are expressed as percentages of intracellular cytokine secreting T cells upon stimulation. […] Data are expressed as percentages of intracellular TNF secreting T cells upon stimulation. […]
as §1
Target cells were labeled with 100 μCi Na^51CrO4 (Oris Industrie, Gif-sur-Yvette, France) for 1 h at 37° C., and incubated 4 h at 37° C., with effectors T cells at various E/T ratios. […] Percentage of target cell lysis was calculated according to the following formula: [(experimental release−spontaneous release)/(maximum release−spontaneous release)]×100. Maximum and spontaneous releases were determined by, respectively, adding 0.1% Triton X-100 or medium to ^51Cr-labeled target cells in the absence of T cells.

HAEC [5] = assay: Surface expression of HLA-E and total HLA-I on endothelial cultures after IFN-γ treatment (flow cytometry); format: cell-based, human; conditions: IFN-γ 50 U/mL, 48 h
Procedure: A/ impact of IFN-γ treatment on surface expression of HLA-E (thick lines) and total HLA-I (dotted lines) molecules by endothelial cultures. MFI are indicated. B/ HLA-E-restricted CD8 T cells cytotoxicity toward endothelial cultures treated or not with IFN-γ. 103 ^51 Cr-labeled HAECs pretreated (closed circles) or not (open circle) with IFN-γ were co-cultured for 4 h with T cells at various E:T ratio. Cytotoxic activity was assessed trought measure of Chromium release in the supernatants. Percentages of specific lysis are indicated. Means and standard deviations of triplicate wells are shown for one representative experiments out of three performed. C/ HLA-E-restricted CD8 T cells cytokine production upon stimulation with endothelials cultures treated or not with IFN-γ. MART.22 T cells were fixed, permeabilized and stained for intracellular cytokines following 6 h of incubation with HAECs pretreated (black bars) or not (white bars) with INF-γ. Data are expressed as percentages of intracellular cytokine secreting T cells upon stimulation. D/ HLA-E-restricted CD8 T cells cytokine production upon stimulation with endothelials cultures treated or not by IFN-γ, in the presence of blocking antibodies. […] Data are expressed as percentages of intracellular TNF secreting T cells upon stimulation. […]

[6] = target: protective HLA-C molecules (KIR2DL2 ligands) expressed on HAEC; assay: cell-based or functional assay
[7] = target: classical HLA-I molecules on IFN-γ treated HAEC#495; assay: cell-based or functional assay

Compound: CSCC[C@H](NC(=O)[C@@H](N)C(C)C)C(=O)N[C@@H](C)C(=O)N1CCC[C@H]1C(=O)N[C@@H](CCCNC(=N)N)C(=O)N[C@H](C(=O)N[C@@H](CC(C)C)C(=O)N[C@@H](CC(C)C)C(=O)N[C@@H](CC(C)C)C(=O)O)[C@@H](C)O [VMAPRTLLL]
- binding of HLA-E*0101 tetramers refolded with the peptide to MART.22 [1]: bind
- TNF secreting T cells [2]: 40%

Compound: VMAPRTLVL [HLA-A*02-derived signal peptide, identical to a CMV UL40 peptide]
- binding of HLA-E*0101 tetramers refolded with the peptide to MART.22 [1]: no significant binding
- recognition of peptide-pulsed .221 cells by MART.22 [3]: not recognized at all

Compound: IFN-γ: recombinant human IFN-γ (50 U/mL, Imukin, Boehringer Ingelheim)
- MART.22 reactivity against IFN-γ treated HAEC#116 (HAEC [4]; HAEC#116, unpublished data): completely abolished
- MART.22 mediated lysis and cytokine production (HAEC [4]; IFN-γ treated endothelial cells): decreased
- TNF-α producing T cells upon stimulation with HAEC#495 (HAEC [4]; after IFN-γ treatment, 61% untreated): 33%
- HLA-E and total HLA-I surface expression on endothelial cells (HAEC [5]): enhances

Compound: VTAPRTVLL
- recognition of peptide-pulsed .221 cells by MART.22 [3]: not recognized at all

Compound: CSCC[C@H](NC(=O)[C@@H](N)C(C)C)C(=O)N[C@@H](C)C(=O)N1CCC[C@H]1C(=O)N[C@@H](CCCNC(=N)N)C(=O)N[C@H](C(=O)N[C@H](C(=O)N[C@@H](CC(C)C)C(=O)N[C@@H](CC(C)C)C(=O)O)C(C)C)[C@@H](C)O [VMAPRTVLL]
- TNF secreting T cells [2]: 18%

Compound: KIR2DL2 expressed by MART.22 T cells (from UniProt P43627 22-348) (receptor)
- TNF producing T cells, endothelial cells with no appropriate HLA-C allele (HAEC#323) [6]: 75%
- TNF producing T cells, endothelial cells with only one appropriate HLA-C allele (HAEC#112, #331 and #495) [6]: 54%
- TNF producing T cells, mean value for endothelial cells with two appropriate HLA-C alleles (HAEC#116, #337 and #402) [6]: 18%
- TNF-producing T cells against HAEC#402 in the presence of anti-HLA-A/B/C Abs [6]: < 25%
- TNF-α producing T cells against IFN-γ treated endothelial cells at the maximal dose of mAb against classical HLA-I molecules [7]: 69%

Compound: ILT-2 expressed by MART.22 T cells (from UniProt Q8NHL6 24-650) (receptor)
- TNF-α producing T cells against IFN-γ treated endothelial cells at the maximal dose of mAb against classical HLA-I molecules [7]: 69%

Compound: VTAPRTLLL
- recognition of peptide-pulsed .221 cells by MART.22 [3]: not recognized at all

From patent US20150192570A1, “METHODS FOR DETERMINING WHETHER A CYTOMEGALOVIRUS INFECTION IN A TRANSPLANTED PATIENT IS SUCEPTIBLE TO INDUCE ALLOGRAFT REJECTION” (priority 2012, published 2015)
